According to patent US20070161665A1, “Cancer treatment method” (priority 2003, published 2007):
Where a name gives a salt, the structure may show the parent alone. Read-outs that look alike come from different tables or passages of the source.

Key:
HN5 cells = assay: Roche Cell Death ELISAPlus apoptosis assay in HN5 cells (median effect and sensitization ratio analysis); type: cell-based
Method: HN5 cells are LICR-LON-HN5 head and neck carcinoma cells, which were a gift from the Institute of Cancer Research, Surrey, U.K.
(§1) Cell lines were grown in RPMI-1640 supplemented with 25 mM HEPES, 10 mM glutamine and 10% fetal bovine serum and maintained at 37° C. and 5% CO2 in a humid incubator. Assays were performed in 96 well microtiter plates with optimum seeding densities for each cell line.
(§2) Apoptosis was measured using the Roche Cell Death ELISA^Plus kit (catalog 1 774 425) which detects fragmented nucleosomal DNA that is generated during apoptosis.
Synergistic interaction between compounds was analyzed by the median effect method described by Chou and Talalay (Adv. Enzyme Regul. 22: 27-55, 1984). Briefly, if the two compounds fit the mutually exclusive model of Chou, one calculates the combination index (CI) using the formula CI=((D)1/(Dx)1)+((D)2/(Dx)2) (1) where (D)1 is the concentration of drug 1 in the combination that gives “x” percent apoptosis, (D)2 is the same for drug 2, and (Dx)1 and (Dx)2 are the concentrations of drug 1 or 2 that give “x” percent apoptosis when used alone. (D)1 and (D)2 are known from the composition of the combination and (Dx)1 and (Dx)2 can be calculated from the equation Dx=Dm*[fa/(1−fa)]^1/m (2) where Dm is the concentration of drug giving 50% effect, fa is the fraction affected, and m is the slope from the median effect plot of log (fa/fu) where fu is the fraction unaffected versus log (D). A CI less than 1 indicates synergy, equal to 1 indicates additivity and greater than 1 antagonism.
(§3) Sensitization is measured as the ratio between observed and expected apoptosis or caspase activation from a combination of AKT kinase inhibitor and EGFR/erb inhibitor. The expected level of activity (Ae) is calculated by Ae=1−((1−A1)*(1−A2)) (3) where A1 and A2 are the activities of drugs 1 and 2 alone at the concentration used in the combination (Harvey, R. J., J. Theor. Biol. 74: 411-437, 1978).

AKT1 = AKT1 (Homo sapiens, UniProt P31749); assay: Inhibition of AKT isoforms, enzyme IC50; type: biochemical
Sequence of AKT1 (P31749 whole entry, species assumed, canonical isoform): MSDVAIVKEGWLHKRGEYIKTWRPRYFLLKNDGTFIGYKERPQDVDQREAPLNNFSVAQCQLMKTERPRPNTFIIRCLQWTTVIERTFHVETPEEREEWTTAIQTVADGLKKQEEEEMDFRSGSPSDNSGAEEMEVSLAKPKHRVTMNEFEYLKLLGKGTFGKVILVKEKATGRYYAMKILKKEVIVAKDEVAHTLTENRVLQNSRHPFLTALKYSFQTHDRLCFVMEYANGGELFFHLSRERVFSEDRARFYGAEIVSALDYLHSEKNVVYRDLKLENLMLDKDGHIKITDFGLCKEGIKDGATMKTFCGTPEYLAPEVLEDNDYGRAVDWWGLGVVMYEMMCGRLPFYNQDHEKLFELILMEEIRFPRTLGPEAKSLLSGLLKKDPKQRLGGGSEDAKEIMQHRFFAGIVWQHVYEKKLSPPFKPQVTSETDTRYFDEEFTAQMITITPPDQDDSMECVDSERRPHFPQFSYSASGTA

AKT2 = AKT2 (Homo sapiens, UniProt P31751); assay: Inhibition of AKT isoforms, enzyme IC50; type: biochemical
Sequence of AKT2 (P31751 whole entry, species assumed, canonical isoform): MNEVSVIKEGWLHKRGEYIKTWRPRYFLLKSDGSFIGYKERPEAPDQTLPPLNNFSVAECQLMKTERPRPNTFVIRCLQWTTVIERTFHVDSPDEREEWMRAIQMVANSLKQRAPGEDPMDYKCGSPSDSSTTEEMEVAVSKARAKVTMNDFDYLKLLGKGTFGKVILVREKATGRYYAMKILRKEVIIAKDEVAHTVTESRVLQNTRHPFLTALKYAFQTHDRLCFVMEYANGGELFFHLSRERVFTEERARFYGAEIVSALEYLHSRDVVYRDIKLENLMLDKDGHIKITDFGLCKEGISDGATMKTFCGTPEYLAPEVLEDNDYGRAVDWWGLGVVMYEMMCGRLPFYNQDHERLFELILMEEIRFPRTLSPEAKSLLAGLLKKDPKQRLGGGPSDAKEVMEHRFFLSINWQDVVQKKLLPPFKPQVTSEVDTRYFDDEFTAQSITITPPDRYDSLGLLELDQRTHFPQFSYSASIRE

AKT3 = AKT3 (Homo sapiens, UniProt Q9Y243); assay: Inhibition of AKT isoforms, enzyme IC50; type: biochemical
Sequence of AKT3 (Q9Y243 whole entry, species assumed, canonical isoform): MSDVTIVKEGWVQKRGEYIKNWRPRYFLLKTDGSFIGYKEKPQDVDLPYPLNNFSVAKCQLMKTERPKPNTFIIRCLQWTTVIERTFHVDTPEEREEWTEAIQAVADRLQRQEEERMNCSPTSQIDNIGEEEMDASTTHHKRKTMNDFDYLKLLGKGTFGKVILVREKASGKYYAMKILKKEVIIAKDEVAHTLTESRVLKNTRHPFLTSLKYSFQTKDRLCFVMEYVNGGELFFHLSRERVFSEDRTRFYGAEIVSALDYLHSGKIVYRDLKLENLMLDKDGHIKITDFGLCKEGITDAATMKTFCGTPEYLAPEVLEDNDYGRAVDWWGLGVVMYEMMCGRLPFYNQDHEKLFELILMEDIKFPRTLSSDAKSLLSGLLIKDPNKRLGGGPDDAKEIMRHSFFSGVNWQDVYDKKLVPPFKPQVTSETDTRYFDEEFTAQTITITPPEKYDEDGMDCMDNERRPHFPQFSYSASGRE

T47D cells = assay: Roche Cell Death ELISAPlus apoptosis assay in T47D cells (sensitization ratio); type: cell-based, human; details: for Apoptosis (FIG. 6): 10 μM GW572016 or 100 μM LY294002 separately
Method: T47D cells are human breast ductal carcinoma cells originally obtained from the American Type Culture Collection.
as §1, §2
The expected level of activity (Ae) is calculated by Ae=1−((1−A1)*(1−A2)) (3) where A1 and A2 are the activities of drugs 1 and 2 alone at the concentration used in the combination (Harvey, R. J., J. Theor. Biol. 74: 411-437, 1978).
Apoptosis was measured using the Roche Cell Death ELISA^Plus kit, and the relative percentage of apoptosis was determined for each combination.

MDA-MB468 cells = assay: Roche Cell Death ELISAPlus apoptosis assay in MDA-MB468 cells (sensitization ratio); type: cell-based, human
Method: MDA-MB468 cells are human breast adenocarcinoma cells originally obtained from the American Type Culture Collection.
as §1, §2, §3
MDA-MB468 cells were incubated with varied concentrations of GW583340 for 24 h followed by an additional 4 h incubation with varied concentrations of LY294002. Apoptosis was measured using the Roche Cell Death ELISA^Plus kit, and the relative percentage of apoptosis was determined for each combination. When 1, 2, or 5 μM GW583340 were combined with 100 μM LY294002, SR values 3.4, 4.2 and 5.0, respectively, indicated significant synergism. At lower concentrations of LY294002, lesser degrees of synergism were observed.

[1] = HN5, 24 h; concentration of the named drug within the 1:2 GW572016:LY294002 combo at Dm; read-out: Dm, drug in combo
[2] = HN5, 24 h; concentration of the named drug within the 1:10 GW572016:LY294002 combo at Dm; read-out: Dm, drug in combo
[3] = GW572016 2 μM 24 h, then LY294002 0 μM 4 h
[4] = GW572016 5 μM 24 h, then LY294002 0 μM 4 h
[5] = GW572016 10 μM 24 h, then LY294002 0 μM 4 h
[6] = GW583340 1 μM 24 h, then LY294002 0 μM 4 h
[7] = GW583340 2 μM 24 h, then LY294002 0 μM 4 h
[8] = GW583340 5 μM 24 h, then LY294002 0 μM 4 h
[9] = HN5, 24 h; concentration of the named drug within the 1:2 GW589522:LY294002 combo at Dm; read-out: Dm, drug in combo
[10] = HN5, 24 h; concentration of the named drug within the 1:10 GW589522:LY294002 combo at Dm; read-out: Dm, drug in combo
[11] = Homo sapiens, HN5, 24 h; drug alone (Table 3); concentration giving 50% effect; read-out: Dm
[12] = GW572016 0 μM 24 h, then LY294002 20 μM 4 h
[13] = GW572016 0 μM 24 h, then LY294002 50 μM 4 h
[14] = GW572016 0 μM 24 h, then LY294002 100 μM 4 h
[15] = GW583340 0 μM 24 h, then LY294002 4 μM 4 h
[16] = GW583340 0 μM 24 h, then LY294002 10 μM 4 h
[17] = GW583340 0 μM 24 h, then LY294002 20 μM 4 h
[18] = GW583340 0 μM 24 h, then LY294002 50 μM 4 h
[19] = GW583340 0 μM 24 h, then LY294002 100 μM 4 h

Question: With `CCn1c(-c2nonc2N)nc2cncc(OC3CCNCC3)c21` [Ex 9 (tri-HCl salt), 4-[1-Ethyl-7-(piperidin-4-yloxy)-1H-imidazo[4,5-c]pyridin-2-yl]-furazan-3-ylamine] as the molecule, how does the “Sensitization Ratio in HN5 with 5 μM GW589522A” value (HN5 cells; HN5; 5 μM GW589522A 24 h, then compound 8 μM 4 h) read?
Answer: 10 @ 8

Question: And the IC50 (AKT1)?
Answer: 50 nM

Question: And the IC50 (AKT2)?
Answer: 270 nM

Question: What about the IC50 (AKT3) of the same molecule?
Answer: 190 nM

Question: Which results are given for `CS(=O)(=O)CCNCc1ccc(-c2ccc3ncnc(Nc4ccc(OCc5cccc(F)c5)c(Cl)c4)c3c2)o1.Cc1ccc(S(=O)(=O)O)cc1.Cc1ccc(S(=O)(=O)O)cc1.O` [GW572016, N-{3-Chloro-4-[(3-fluorobenzyl)oxy]phenyl}-6-[5-({[2-(methanesulphonyl)ethyl]amino}methyl)-2-furyl]-4-quinazolinamine ditosylate monohydrate]?
Answer: EC50 (HN5 cells; [1]): 7.2 µM; EC50 (HN5 cells; [2]): 5.3 µM; Net Apoptosis (HN5 cells; HN5; GW572016 2 μM 24 h, then Ex 9 0 μM 4 h): −1.0%; Net Apoptosis (HN5 cells; HN5; GW572016 4 μM 24 h, then Ex 9 0 μM 4 h): 2.5%; Net Apoptosis (HN5 cells; HN5; GW572016 10 μM 24 h, then Ex 9 0 μM 4 h): 5.1%; EC50 (HN5 cells; Homo sapiens; HN5, 24 h; drug alone (Table 1); concentration giving 50% effect; read-out: Dm): 10.3 µM; Apoptosis (FIG. 6) (T47D cells): little effect; Net Apoptosis (T47D cells; [3]): 0.4%; Net avg A405 nm (T47D cells; [3]): 0.013; Net Apoptosis (T47D cells; [4]): 0.3%; Net avg A405 nm (T47D cells; [4]): 0.013; Net Apoptosis (T47D cells; [5]): 2.2%; Net avg A405 nm (T47D cells; [5]): 0.042

Question: What does the source list for `CS(=O)(=O)CCNCc1nc(-c2ccc3ncnc(Nc4ccc(OCc5cccc(F)c5)c(Cl)c4)c3c2)cs1` [GW583340, (4-(3-Fluoro-benzyloxy)-3-chlorophenyl)-(6-(2-((2-methanesulphonyl-ethylamino)-methyl)-thiazol-4-yl)quinazolin-4-yl)-amine]?
Answer: Net Apoptosis (MDA-MB468 cells; [6]): 4.8%; Net avg A405 nm (MDA-MB468 cells; [6]): 0.294; Net Apoptosis (MDA-MB468 cells; [7]): 4.2%; Net avg A405 nm (MDA-MB468 cells; [7]): 0.286; Net Apoptosis (MDA-MB468 cells; [8]): 7.4%; Net avg A405 nm (MDA-MB468 cells; [8]): 0.325

Question: `CS(=O)(=O)CCNCc1ccc(-c2ccc3ncnc(Nc4ccc(OCc5cccc(F)c5)c(Br)c4)c3c2)o1` [GW589522, (4-(3-Fluoro-benzyloxy)-3-bromophenyl)-(6-(5-((2-methanesulphonyl-ethylamino)-methyl)-furan-2-yl)quinazolin-4-yl)-amine] was tested. Which EC50 (HN5 cells; [9]) did it give?
Answer: 8.6 µM

Question: What about the EC50 (HN5 cells; [10]) of the same molecule?
Answer: 4.4 µM

Question: And the “Net Apoptosis” value (HN5 cells; HN5; GW589522 1.56 μM 24 h, then Ex 9 0 μM 4 h)?
Answer: −1.0%

Question: What about the “Net Apoptosis” value (HN5 cells; HN5; GW589522 3.12 μM 24 h, then Ex 9 0 μM 4 h) of the same molecule?
Answer: 2.5%

Question: And the “Net Apoptosis” value (HN5 cells; HN5; GW589522 6.25 μM 24 h, then Ex 9 0 μM 4 h)?
Answer: 2.5%

Question: What about the “Net Apoptosis” value (HN5 cells; HN5; GW589522 12.5 μM 24 h, then Ex 9 0 μM 4 h) of the same molecule?
Answer: 5.1%

Question: And the EC50 (HN5 cells; [11])?
Answer: 15.9 µM

Question: Which EC50 (HN5 cells; [1]) does the source give for `O=c1cc(N2CCOCC2)oc2c(-c3ccccc3)cccc12` [LY294002, 2-(4-morpholinyl)-8-phenyl-4H-1-benzopyran-4-one, reference compound] here?
Answer: 14.5 µM

Question: And the EC50 (HN5 cells; [9])?
Answer: 17.2 µM

Question: And the EC50 (HN5 cells; [2])?
Answer: 52.9 µM

Question: And the EC50 (HN5 cells; [10])?
Answer: 44.3 µM

Question: And the EC50 (HN5 cells; Homo sapiens, HN5, 24 h; drug alone (Table 1); concentration giving 50% effect; read-out: Dm)?
Answer: 186 µM

Question: And the EC50 (HN5 cells; [11])?
Answer: 123 µM

Question: What about the “Apoptosis (FIG. 6)” value (T47D cells) of the same molecule?
Answer: little effect

Question: And the “Net Apoptosis” value (T47D cells; [12])?
Answer: 2.2%

Question: What about the “Net avg A405 nm” value (T47D cells; [12]) of the same molecule?
Answer: 0.041

Question: And the “Net Apoptosis” value (T47D cells; [13])?
Answer: 3.6%

Question: And the “Net avg A405 nm” value (T47D cells; [13])?
Answer: 0.063

Question: And the “Net Apoptosis” value (T47D cells; [14])?
Answer: 4.5%

Question: And the “Net avg A405 nm” value (T47D cells; [14])?
Answer: 0.077

Question: What about the “Net Apoptosis” value (MDA-MB468 cells; [15]) of the same molecule?
Answer: 4.8%

Question: And the “Net avg A405 nm” value (MDA-MB468 cells; [15])?
Answer: 0.294

Question: And the “Net Apoptosis” value (MDA-MB468 cells; [16])?
Answer: 6.5%

Question: And the “Net avg A405 nm” value (MDA-MB468 cells; [16])?
Answer: 0.314

Question: What about the “Net Apoptosis” value (MDA-MB468 cells; [17]) of the same molecule?
Answer: 8.6%

Question: What about the “Net avg A405 nm” value (MDA-MB468 cells; [17]) of the same molecule?
Answer: 0.338

Question: What about the “Net Apoptosis” value (MDA-MB468 cells; [18]) of the same molecule?
Answer: 9.0%

Question: What about the “Net avg A405 nm” value (MDA-MB468 cells; [18]) of the same molecule?
Answer: 0.344

Question: What about the “Net Apoptosis” value (MDA-MB468 cells; [19]) of the same molecule?
Answer: 13.7%

Question: And the “Net avg A405 nm” value (MDA-MB468 cells; [19])?
Answer: 0.399
